The values that follow come from patent publication US5985968A, “Surface tension reduction with N,N-dialkyl ureas” (Air Products and Chemicals, Inc., priority 1997, dated 1999).

Data set [1] is described as follows: Dynamic surface tension of aqueous solutions, maximum-bubble-pressure method. Type of data set: physicochemical. To be noted: for Dynamic Surface Tension: about 23° C.; for Surface tension reduction (in words): summary of dynamic surface tension data. From the text: This invention relates to the use of compounds of the formula [drawing 3] where R1 and R2 are independently C1 to C6 alkyl or cycloalkyl with the total number of carbons in R and R' being 6-12 for the reduction of equilibrium and dynamic surface tension in water-based formulations containing an organic compound, particularly coating, ink, and agricultural formulations. […] The maximum-bubble-pressure method of measuring surface tension is described in Langmuir 1986, 2, 428-432, which is incorporated by reference.
In the following examples dynamic surface tension data were generated for aqueous solutions of the indicated compounds using the maximum-bubble-pressure method at the indicated bubble rates, i.e., bubbles/second (b/s), and room temperature of about 23° C. The equipment used was a Kruss BP 2 bubble pressure tensiometer.
(§1) A saturated solution in distilled water of N,N'-di-n-butylurea was prepared by placing 0.1 g of the urea into 99.9 g of water and shaking the mixture for 1-2 h. […] The solids were removed by filtration, and the dynamic surface tension of the resulting solution was measured using the maximum bubble pressure method at bubble rates from 0.1 to 20 b/s. […] In practical terms, high bubble rates correspond to high printing speeds in lithographic or ink-jet printing, high spray or roller velocities in coating applications, and rapid application rates for agricultural products.
Aqueous solutions of N,N-dibutylurea were prepared and their surface tensions were measured using the procedure described above.

A short description of data set [2]: Solubility in water (saturated solution / solubility limit). It counts as physicochemical. To be noted: for dissolution (in words): 0.1 g urea in 99.9 g water, shaken 1-2 h; for solubility thermodynamic: saturated solution in distilled water, solids filtered off, read-out: Concentration of saturated solution. The procedure: A series of aqueous solutions of various concentrations of n-octylurea [Pfaltz & Bauer] was prepared by placing the urea into water and shaking the mixture for 1-2 h. All of the urea dissolved in the low concentration samples. Undissolved urea in some of the higher concentration samples was remove by filtration. Surface tensions of these solutions were measured using the Wilheimy plate technique. This method provides equilibrium surface tension values. Equilibrium values are always equal to or lower than those obtained under dynamic conditions.
as §1
A saturated solution in distilled water of N,N-di-(2-ethylhexyl)urea was prepared by placing 0.1 g of the urea into 99.9 g of water and shaking the mixture for 1-2 h. […] The solids were removed by filtration, and the surface tension of the resulting solution was measured as described above.
Similarly, a saturated solution in distilled water of N,N-di-n-octylurea was prepared by placing 0.1 g of the urea into 99.9 g of water and shaking the mixture for 1-2 hr. […] The solids were removed by filtration, and the surface tension of the resulting solution was measured as described above.
A saturated solution in distilled water of N,N-di-n-hexylurea was prepared by placing 0.1 g of the urea into 99.9 g of water and shaking the mixture for 1-2 h. […] The solids were removed by filtration, and the surface tension of the resulting solution was measured as described above.

`CCCCNC(=O)NCCCC` [N,N'-Di-n-butylurea, N,N'-di-n-butylurea, reference compound]: the “Dynamic Surface Tension” value in data set [1] (saturated (<0.1 wt %), 0.1 b/s) was determined as 59.0 dyne/cm; in data set [1] (saturated (<0.1 wt %), 1 b/s), 59.6 dyne/cm; in data set [1] (saturated (<0.1 wt %), 6 b/s) it was 60.2 dyne/cm; in data set [1] (saturated (<0.1 wt %), 15 b/s) it was 60.6 dyne/cm; in data set [1] (saturated (<0.1 wt %), 20 b/s) it was 60.9 dyne/cm. In data set [2], the “dissolution (in words)” value is recorded as “Most of the N,N'-di-n-butylurea remained undissolved”. Further, in data set [2], the solubility thermodynamic was below 1000 µg/mL.

With `CCCCC(CC)CN(CC(CC)CCCC)C(N)=O` (stereo not drawn) [N,N-Di-(2-ethylhexyl)urea, N,N-di-(2-ethylhexyl)urea, reference compound], the “Dynamic Surface Tension” value in data set [1] (saturated (<0.1 wt %), 0.1 b/s) was determined as 60.1 dyne/cm; in data set [1] (saturated (<0.1 wt %), 1 b/s), 69.2 dyne/cm; in data set [1] (saturated (<0.1 wt %), 6 b/s), 69.6 dyne/cm; in data set [1] (saturated (<0.1 wt %), 15 b/s), 69.3 dyne/cm; in data set [1] (saturated (<0.1 wt %), 20 b/s), 68.1 dyne/cm. Further, the “dissolution (in words)” value in data set [2] was “Most of the urea remained undissolved”. For the same compound, in data set [2], the solubility thermodynamic was below 1000 µg/mL.

For the compound `CCCCCCCCN(CCCCCCCC)C(N)=O` [N,N-Di-n-octylurea, N,N-di-n-octylurea, reference compound], the “Dynamic Surface Tension” value was found to be 52.9 dyne/cm in data set [1] (saturated (<0.1 wt %), 0.1 b/s); 69.8 dyne/cm in data set [1] (saturated (<0.1 wt %), 1 b/s); 71.1 dyne/cm in data set [1] (saturated (<0.1 wt %), 6 b/s); 70.3 dyne/cm in data set [1] (saturated (<0.1 wt %), 15 b/s); 69.4 dyne/cm in data set [1] (saturated (<0.1 wt %), 20 b/s). In addition, in data set [2], the “dissolution (in words)” value is reported as “Most of the urea remained undissolved”. Besides, the solubility thermodynamic in data set [2] is below 1000 µg/mL.

For the compound `CCCN(CCC)C(N)=O` [N,N-Di-n-propylurea, N,N-di-n-propylurea], the “Dynamic Surface Tension” value turned out to be 53.8 dyne/cm in data set [1] (0.5 wt %, 0.1 b/s); 54.0 dyne/cm in data set [1] (0.5 wt %, 1 b/s); 54.3 dyne/cm in data set [1] (0.5 wt %, 6 b/s); 53.8 dyne/cm in data set [1] (0.5 wt %, 15 b/s); 53.7 dyne/cm in data set [1] (0.5 wt %, 20 b/s); 43.4 dyne/cm in data set [1] (2.0 wt %, 0.1 b/s). Besides, the “Dynamic Surface Tension” value in data set [1] (2.0 wt %, 1 b/s) turned out to be 43.6 dyne/cm; in data set [1] (2.0 wt %, 6 b/s) it was 43.9 dyne/cm; in data set [1] (2.0 wt %, 15 b/s), 44.4 dyne/cm; in data set [1] (2.0 wt %, 20 b/s) it was 44.5 dyne/cm; in data set [1] (4.0 wt %, 0.1 b/s) it was 39.0 dyne/cm; in data set [1] (4.0 wt %, 1 b/s), 39.1 dyne/cm. Also, the “Dynamic Surface Tension” value came out at 39.3 dyne/cm in data set [1] (4.0 wt %, 6 b/s); 39.5 dyne/cm in data set [1] (4.0 wt %, 15 b/s); 39.6 dyne/cm in data set [1] (4.0 wt %, 20 b/s). The “Surface tension reduction (in words)” value in data set [1] is “reasonably effective at reducing the surface tension of water”.

On to `CN(C(N)=O)C1CCCCC1` [N-cyclohexyl-N-methylurea], for which the “Dynamic Surface Tension” value in data set [1] (1.0 wt %, 0.1 b/s) was found to be 51.9 dyne/cm; in data set [1] (1.0 wt %, 1 b/s) it was 52.4 dyne/cm; in data set [1] (1.0 wt %, 6 b/s) it was 52.9 dyne/cm; in data set [1] (1.0 wt %, 15 b/s) it was 53.2 dyne/cm; in data set [1] (1.0 wt %, 20 b/s), 53.2 dyne/cm; in data set [1] (2.5 wt %, 0.1 b/s), 44.1 dyne/cm. Further, the “Dynamic Surface Tension” value is given as 44.6 dyne/cm in data set [1] (2.5 wt %, 1 b/s); 45.1 dyne/cm in data set [1] (2.5 wt %, 6 b/s); 45.6 dyne/cm in data set [1] (2.5 wt %, 15 b/s); 45.8 dyne/cm in data set [1] (2.5 wt %, 20 b/s). Besides, the “Surface tension reduction (in words)” value in data set [1] was “reasonably effective at reducing the surface tension of water”.
